Assay results taken from patent US8951563B2, “Antibiotic drug delivery and potentiation” (Technion Research & Development Foundation Limited, priority 2009, dated 2015).
In brackets after ≈: the same amount, converted by molar mass.

Tests used:
[1] = tested on: A. aureus; format: cell-based
Method: (§1) All bacteria were cultured in Luria-Bertani (LB) medium (10 g/l tryptone, 5 g/l yeast extract, 5 g/l NaCl, pH 7.4).
(§2) Bacteria were grown overnight in LB growth medium and diluted 10,000-fold in same medium.
(§3) Inhibition of proliferation was determined by optical density measurements (620 nm) after incubation overnight at 37° C.

[2] = tested on: E. coli; format: cell-based
Method: as §1, §2, §3

[3] = tested on: four MDR clinical isolates of E. coli; format: cell-based
Method: as §2, §3

[4] = tested on: E. coli AG100; experiment: Ethidium bromide (EtBr) uptake assay; format: cell-based; settings: bacteria in PBS, FIG. 2A
Method: Cells were grown overnight in LB broth at 37° C. to an optical density of 1 (620 nm), washed twice in 200 μl PBS, and resuspended in the same buffer containing 0.5% glucose. […] Fluorescence was recorded by a BioTeK synergy HT Microplate Reader (excitation, 530 nm; emission, 645 nm).
Ethidium bromide is known for its ability to spontaneously translocate across bacterial membranes and interact with nucleic acids, as can be evidenced by the increase in fluorescence signal.

[5] = tested on: E. coli AG100; experiment: Bactericidal kinetics (time-kill); format: cell-based; settings: sub-MIC concentrations, FIG. 2B
Method: Bacteria were sampled at various time intervals, subjected to serial 10-fold dilutions, and plated onto LB-agar. Cell counts were determined using the drop plate method. Plates were incubated overnight at 37° C. and colonies were counted.

[6] = Encapsulation efficiency, liposome versus cochleate (MIC and fluorescamine methods); format: physicochemical
[7] = Cochleate formation by light microscopy; format: physicochemical; design: key: or above (E!); excellent (E); good (G); poor (P); none (N)
Method: Lipid films containing binary mixtures of lipids were made from aliquots of stock solutions in chloroform:methanol (2:1). The solvent was evaporated with a stream of nitrogen gas and the lipids deposited as a film on the walls of a glass tube. The tubes were then placed in a vacuum dessicator for 3 hours. The films were kept under Argon at −20° C. The lipid films were hydrated with buffer solutions of OAK polymers with extensive vortexing, so as to have a lipid to polymer molar ratio of […].
Hydrated films were subjected to freeze thawing three times before imaging, to ensure proper equilibration of OAK with the multilamellar vesicles. A drop of this mixture was placed on a glass slide and covered with a glass coverslip. Light microscopy was carried out at room temperature using a Zeiss Axiovert 100M microscope with a Plan-Neofluar 100×/1.3 oil immersion objective. Images were analyzed with the Zeiss LSM image browser v2.8.
The morphology of the samples of different OAKs and different lipid mixtures could be classified into the following categories.
Table 5 presents the results of cochleate formation with different lipid mixtures of 1:10 lipid to polymer ratio, and a series of OAK polymers, indicated by their alternative denotations and SED ID Nos in parentheses. “Tm” denotes the melting temperature of the lipid bilayer afforded by the given lipid mixture. Some selected samples were further analyzed to confirm the results with freeze fracture electron microscopy for, as indicated in Table 5. Cochleate formation is defined as excellent (E) or above (E!), good (G), poor (P), or none (N) based on the aforementioned comparison, as well as on the abundance of cochleate structures observed in the light microscopy images. Lipid mixtures having a number in parenthesis are samples for which freeze-fracture electron microscopy analysis was conducted. Lipid mixtures having a “+” sign next to the number in parenthesis are samples which were confirmed by freeze-fracture electron microscopy as forming large cochleates with few vesicles and no inverted micellar (HII) morphology (samples 2, 3 and 5), or smaller cochleate structures mixed with other morphologies (samples 0 and 4). Lipid mixtures which contain only anionic lipids are marked with “^A”. Sample 0 is the lipid/OAK system used and presented in Example 1 hereinabove.

[8] = Molecular charge and RP-HPLC hydrophobicity of polymers; format: physicochemical; settings: HPLC-RP gradient mobile phase
Description: Briefly, the polymers were synthesized while applying the Fmoc active ester chemistry on a fully automated, programmable peptide synthesizer (Applied Biosystems 433A). After cleavage from the resin, the crude product was extracted with 30% acetonitrile in water and purified by RP-HPLC (Alliance Waters), so as to obtain a chromatographic homogeneity higher than 95%. HPLC runs were typically performed on C18 columns (Vydac, 250 mm×4.6 or 10 mm) using a linear gradient of acetonitrile in water (1% per minute), both solvents containing 0.1% trifluoroacetic acid. The purified polymers were subjected to mass spectrometry (ZQ Waters) and NMR analyses to confirm their composition, and stored as a lyophilized powder at −20° C. Prior to being tested, fresh solutions were prepared in water, vortexed, sonicated, centrifuged and then diluted in the appropriate medium.
“Q” represents the overall molecular charge at physiological pH; “ACN (%)” represents the percent of acetonitrile in the HPLC-RP gradient mobile phase at which the polymer was eluted and which corresponds to the estimated hydrophobicity of the polymer. The column headed by “Ref.” indicates prior reference of the OAK if present, wherein a number in parentheses “(##)” corresponds to the SEQ ID NO in U.S. Pat. No. 7,504,381; the letter “R” indicates a polymer published in Radzishevsky I. S. et al. (2008), Chem. Biol., 15(4), pp. 354-362; and “New” indicates a novel polymer disclosed herein.

[9] = Maximal tolerated dose (MTD), single IV injection; settings: mice, free OAK
[10] = Freeze fracture electron microscopy of cochleates
[11] = tested on: Klebsiella pneumoniae CI 1286; experiment: Whole blood assay (stability and drug release); format: cell-based; settings: whole human blood, 37° C., 4 and 40 multiples of the MIC, FIG. 4D
Method: Stability and drug release rates were assessed using the human blood-resistant Klebsiella pneumoniae CI 1286. […] After the specified incubation periods (37° C.), aliquots were plated on LB agar as described above (Antibacterial assays) for CFU count.
The stability of OAK-cochleate and OAK-liposome preparations in whole blood was compared by assessing antibacterial activity against the blood-resistant strain of Klebsiella pneumonia.

For CCCCCCCCCCCC(=O)NC(CCCCN)C(=O)NCCCCCCCC(=O)NC(CCCCN)C(=O)NCCCCCCCC(=O)NC(CCCCN)C(=O)NCCCCCCCC(=O)NC(CCCCN)C(=O)NCCCCCCCC(=O)NC(CCCCN)C(=O)NCCCCCCCC(=O)NC(CCCCN)C(=O)NCCCCCCCC(=O)NC(CCCCN)C(=O)NCCCCCCCC(=O)NC(CCCCN)C(N)=O (stereo not drawn) [C12K-7α8, C12K(NC8K)7NH2], the “MIC A. aureus” value [1] was 50 µM (≈ 111 µg/mL), the “MIC E. coli” value [2] was 3.1 µM (≈ 6.86 µg/mL) and the “OAK MIC” value [3] was 6.9 µg/mL. For the same molecule, the “EtBr uptake (intracellular accumulation)” value [4] was “enhanced in a dose-dependent manner”, the “time-kill, OAK alone” value [5] was “significant bactericidal activity at sub-MIC concentrations” and the “OAK encapsulation efficiency in cochleates (OAK bound)” value ([6]; cochleates (POPE:TOCL)) was > 80%. The “OAK encapsulation efficiency in liposomes” value ([6]; liposomes (PC:PEG2000)) was < 20%, the Cochleate formation ([7]; DMPC:TOCL 75:25, 1:10 lipid to polymer ratio) was “N” and the Cochleate formation ([7]; DMPE:DOPG 75:25, 1:10 lipid to polymer ratio) was “E”. For the same molecule, the Cochleate formation ([7]; DMPE:TOCL 75:25, 1:10 lipid to polymer ratio) was “E”, the Cochleate formation ([7]; DMPG:TOCL 75:25 (anionic lipids only), 1:10 lipid to polymer ratio) was “N” and the Cochleate formation ([7]; DOPE:TOCL 75:25, 1:10 lipid to polymer ratio) was “P”. For the same molecule, the Cochleate formation ([7]; DPPE:TOCL 75:25, 1:10 lipid to polymer ratio) was “E”, the Cochleate formation ([7]; POPC:TOCL 75:25, 1:10 lipid to polymer ratio) was “P” and the Cochleate formation ([7]; POPE:DOPG 75:25, 1:10 lipid to polymer ratio) was “N”. For the same molecule, the Cochleate formation ([7]; POPE:DOPG:TOCL 80:15:5, 1:10 lipid to polymer ratio) was “N”, the Cochleate formation ([7]; POPE:TOCL 50:50, lipid to polymer 10:1) was “poor cochleate former” and the Cochleate formation ([7]; POPE:TOCL 75:25, 1:10 lipid to polymer ratio) was “G”. The Cochleate formation ([7]; POPG:TOCL 75:25 (anionic lipids only), 1:10 lipid to polymer ratio) was “G”, the Cochleate formation ([7]; TOCL alone, lipid to polymer 10:1) was “abundance of smaller liposomes” and the “ACN (%) (percent acetonitrile at elution, estimated hydrophobicity)” value [8] was 47.5%. The mortality ([9]; 10 mg/kg) was 33%, the “maximal tolerated dose (MTD)” value [9] was ~5 mg OAK/kg and the “cochleate formation by freeze fracture electron microscopy” value ([10]; DMPE:TOCL (75:25), DPPE:TOCL (75:25) or DMPE:DOPG (75:25)) was “strongly promoted the formation of large cochleates”. For the same molecule, the “Pre-formed and fully formed cochleate Length” value ([10]; POPC:TOCL 75:25, 10:1 lipid to polymer) was “(1.8) μm” and the “cochleate formation by freeze fracture electron microscopy” value ([10]; POPC:TOCL (75:25) or POPG:TOCL (75:25)) was “weakly promoted cochleate formation”.
In the case of C12K(NC8K)7NH2 [C12K-7α8], the “antibacterial activity / OAK release in whole blood” value [11] is reported as “maintained rapid bactericidal activity”.
